Results from patent US8044068B2, “Aminopyrrolidine compound” (Taisho Pharmaceutical Co., Ltd, priority 2006, dated 2011).
pIC50: −log10 of the molar value. Structures can show the parent of a compound that is named as a salt.

Target: T1, human MC4 receptor (Homo sapiens, UniProt P32245)
T1 construct: purchased Biolinks K.K; host or cells: HEK-293
Assay: MC4 receptor binding experiment ([125I]Nle4-D-Phe7-α-MSH displacement)
Conditions: human MC4 receptor expressing HEK-293 cell membrane; [125I]Nle4-D-Phe7-α-MSH 0.2 nM, 25° C.
Description: The MC4 receptor binding experiment was performed according to the method described in Pharmacology & Toxicology, 79, 161-165, 1996. The human MC4 receptor expressing-cell membrane obtained by expressing the human MC4 receptor in a HEK-293 cell was purchased from Biolinks K.K. The cell membrane was homogenized with 50 mM tris hydrochloride buffer (pH 7.4) containing 2 mM ethylenediaminetetraacetic acid, 10 mM calcium chloride, and 100 μM phenylmethylsulfonyl fluoride. The homogenate was centrifuged at 48,000×g at 4° C. for 20 min. The sediment obtained by centrifugation was rehomogenized with the same buffer, and the homogenate was centrifuged at 48,000×g at 4° C. for 20 min. This procedure was repeated twice. The sediment was suspended in 50 mM tris hydrochloride buffer (pH 7.4) containing 2 mM ethylenediaminetetraacetic acid, 10 mM calcium chloride, 100 μM phenylmethylsulfonyl fluoride, and 0.1% bovine serum albumin at a protein concentration of 100 μg/ml, and the suspension was used as a crude membrane preparation for the binding experiment. The crude membrane preparation (0.25 ml, 25 μg protein) was reacted with [^125I]Nle^4-D-Phe^7-α-MSH (final concentration, 0.2 nM) at 25° C. for 120 min. After completion of the reaction, the reaction solution was filtered by suction, using a cell harvester for the receptor binding experiment, onto a GF/C glass fiber filter paper immersed in 50 mM tris hydrochloride buffer (pH 7.4) containing 0.5% bovine serum for 2 h. Radioactivity on the filter paper was measured using a γ counter. The quantity of binding in the presence of 1 μM Nle^4-D-Phe^7-α-MSH was obtained as nonspecific binding, and specific binding was obtained by deducting the nonspecific binding from the total quantity, binding in the absence of 1 μM Nle^4-D-Phe^7-α-MSH. The test drug was dissolved in 100% DMSO solution and added to the membrane preparation at the same time as [^125I]Nle^4-D-Phe^7-α-MSH. The IC50 value was obtained from the inhibition curve in the range of 10^−10 to 10^−5 M. The binding test results of representative compounds are shown in Table 21 as examples.

T1 sequence (P32245 whole entry): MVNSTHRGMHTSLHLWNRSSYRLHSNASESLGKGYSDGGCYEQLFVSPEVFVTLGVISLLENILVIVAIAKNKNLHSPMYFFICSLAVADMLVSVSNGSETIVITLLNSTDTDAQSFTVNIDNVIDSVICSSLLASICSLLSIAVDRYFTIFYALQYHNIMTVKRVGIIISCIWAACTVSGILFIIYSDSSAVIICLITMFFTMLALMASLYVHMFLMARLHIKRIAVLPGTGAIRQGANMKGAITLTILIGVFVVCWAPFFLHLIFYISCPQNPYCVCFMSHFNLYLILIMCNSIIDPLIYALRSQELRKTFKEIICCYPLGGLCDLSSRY

Row | Structure (SMILES) | pIC50
1 | Cc1ccc2nc(N[C@H]3CCN(C(=O)Cc4ccc(OC(F)(F)F)cc4)C3)nc(N(C)C)c2c1 [Compound 1-003] | 7.74
2 | O=C1CN(c2nc(N[C@H]3CCN(C(=O)Cc4cc(F)ccc4-c4ccc(OC(F)(F)F)cc4)C3)nc3cc(F)ccc23)CCN1 [Compound 1-133] | 8.36
3 | COc1ccc2nc(N[C@H]3CCN(C(=O)Cc4ccc(OC(F)(F)F)cc4)C3)nc(N3CCN(C(=O)c4cccnc4)CC3)c2c1 [Compound 1-176] | 9.00
4 | O=C(Cc1ccc(OC(F)(F)F)cc1)N1C[C@@H](O)[C@H](Nc2nc(N3CCOCC3)c3cscc3n2)C1 [Compound 8-006] | 8.00
5 | CN(C)c1nc(N[C@H]2CCN(C(=O)Cc3ccc(OC(F)(F)F)cc3)C2)nc2ccsc12 [Compound 6-001, (S)-1-(3-(4-dimethylaminothieno[3,2-d]pyrimidin-2-ylamino)pyrrolidin-1-yl)-2-(4-trifluoromethoxyphenyl)ethanone 1 maleate] | 7.15
6 | Cc1ccc2nc(N[C@H]3CCN(C(=O)Cc4ccc(OC(F)(F)F)cc4)C3)nc(NCCc3ccccn3)c2c1 [Compound 1-019] | 8.00
7 | Cc1cc(N2CCS(=O)(=O)CC2)nc(N[C@H]2CCN(C(=O)Cc3ccc(OC(F)(F)F)cc3)C2)n1 [Compound 4-054] | 7.41
8 | COc1ccc2nc(N[C@H]3CCN(C(=O)C(C)(C)c4ccc(Cl)cc4)C3)cc(C)c2c1 [Compound 3-041] | 7.34
9 | CS(=O)(=O)C1CCN(c2nc(N[C@H]3CCN(C(=O)Cc4ccc(OC(F)(F)F)cc4)C3)nc3cscc23)CC1 [Compound 8-005] | 7.92
10 | O=C(Cc1ccccc1-c1ccccc1)N1CC[C@H](Nc2nc(N3CCc4ccccc4C3)c3ccc(F)cc3n2)C1 [Compound 1-101] | 7.17
11 | CC(=O)N1CCN(c2nc(N[C@@H]3CN(C(=O)Cc4ccc(OC(F)(F)F)cc4)C[C@H]3O)nc3cscc23)CC1 [Compound 8-007] | 8.00
12 | COc1ccc2nc(N[C@H]3CCN(C(=O)Cc4ccc(OC(F)(F)F)cc4)C3)nc(N(C)C)c2c1 [Compound 1-005] | 8.55
13 | Cc1cc(N2CCOCC2)nc(N[C@H]2CCN(C(=O)Cc3ccc(OC(F)(F)F)cc3)C2)n1 [Compound 4-044] | 7.25
14 | Cc1cc(N[C@H]2CCN(C(=O)Cc3ccc(OC(F)(F)F)cc3)C2)nc2ccc(O)cc12 [Compound 3-022] | 8.02
15 | CC(=O)N1CCN(c2nc(N[C@H]3CCN(C(=O)Cc4ccc(OC(F)(F)F)cc4)C3)nc3cscc23)CC1 [Compound 8-004] | 7.96
16 | O=C(Cc1ccc(OC(F)(F)F)cc1)N1CC[C@H](Nc2nc(N3CCC(N4CCOCC4)CC3)c3ccc(F)cc3n2)C1 [Compound 1-092] | 7.43
17 | CO[C@H]1CN(c2nc(N[C@H]3CCN(C(=O)Cc4ccc(OC(F)(F)F)cc4)C3)nc3ccccc23)C[C@H]1OC [Compound 1-206] | 8.64
18 | COc1cc(N[C@H]2CCN(C(=O)Cc3ccc(OC(F)(F)F)cc3)C2)nc2ccc(C)cc12 [Compound 3-034] | 7.80
19 | Cc1cc(N[C@H]2CCN(S(C)(=O)=O)C2)nc(N[C@H]2CCN(C(=O)Cc3ccc(OC(F)(F)F)cc3)C2)n1 [Compound 4-022] | 7.52
20 | Cc1cc(N[C@H]2CCN(C(=O)Cc3ccc(OC(F)(F)F)cc3)C2)nc2ccc(F)cc12 [Compound 3-019] | 7.11
21 | COc1ccc2nc(N[C@H]3CCN(C(=O)Cc4ccc(OC(F)(F)F)cc4)C3)nc(N3CCC(S(C)(=O)=O)CC3)c2c1 [Compound 1-078] | 8.82

Now from value to compound:

Row | pIC50 | Structure (SMILES)
22 | 7.80 | Cc1cc(N2CCOCC2)cc(N[C@@H]2CN(C(=O)Cc3ccc(OC(F)(F)F)cc3)C[C@H]2O)n1 [Compound 14-001, 1-((3R,4R)-3-hydroxy-4-(6-methyl-4-morpholin-4-ylpyridin-2-ylamino)pyrrolidin-1-yl)-2-(4-trifluoromethoxyphenyl)ethanone]
23 | 8.47 | COc1ccc2nc(N[C@@H]3CN(C(=O)Cc4ccc(OC(F)(F)F)cc4)C[C@H]3OC)cc(OC)c2c1 [Compound 12-018]
24 | 8.21 | O=C(Cc1ccc(OC(F)(F)F)cc1)N1C[C@@H](O)[C@H](Nc2nc(N3CCOCC3)c3cc(Cl)ccc3n2)C1 [Compound 11-009]
25 | 7.34 | CO[C@@H]1CCN(c2cc(C)nc(N[C@@H]3CN(C(=O)Cc4ccc(OC(F)(F)F)cc4)C[C@H]3O)n2)C1 [Compound 13-004]
26 | 8.48 | COc1ccc2nc(N[C@@H]3CN(C(=O)Cc4ccc(OC(F)(F)F)cc4)C[C@H]3O)cc(OC)c2c1 [Compound 12-017]
27 | 8.52 | COc1ccc2nc(N[C@@H]3CN(C(=O)Cc4ccc(OC(F)(F)F)cc4)C[C@H]3OC)cc(C)c2c1 [Compound 12-010]
28 | 7.59 | O=C1CN(c2nc(N[C@H]3CCN(C(=O)C4(c5ccc(Cl)cc5)CC4)C3)nc3cc(F)ccc23)CCN1 [Compound 15-003]
29 | 8.85 | COc1ccc2nc(N[C@@H]3CN(C(=O)Cc4ccc(OC(F)(F)F)cc4)C[C@H]3O)nc(N3CCC(S(C)(=O)=O)CC3)c2c1 [Compound 11-014]
30 | 9.00 | COc1ccc2nc(N[C@@H]3CN(C(=O)Cc4ccc(OC(F)(F)F)cc4)C[C@H]3O)nc(N3CCN(C(C)=O)CC3)c2c1 [Compound 11-015]
31 | 8.54 | COc1ccc2nc(N[C@@H]3CN(C(=O)Cc4ccc(OC(F)(F)F)cc4)C[C@H]3O)cc(N3CCOCC3)c2c1 [Compound 12-001]
32 | 8.13 | CO[C@@H]1CN(C(=O)Cc2ccc(OC(F)(F)F)cc2)C[C@H]1Nc1cc(N2CCS(=O)(=O)CC2)cc(C)n1 [Compound 14-003]
33 | 7.89 | Cc1ccc2nc(N[C@@H]3CN(C(=O)Cc4ccc(OC(F)(F)F)cc4)C[C@H]3O)cc(C)c2c1 [Compound 12-004]
34 | 7.44 | CO[C@@H]1CN(C(=O)Cc2ccc(OC(F)(F)F)cc2)C[C@H]1Nc1nc(C)cc(N2CCOCC2)n1 [Compound 13-008]
